Assay results reported in BindingDB's records for doi:10.7270/Q2TX3CTT (Broad Institute, 2010).
Structures can show the parent of a compound that is named as a salt.

Target: Glycogen synthase kinase-3 beta (Homo sapiens, UniProt P49841)
Experiment: GSK3beta kinase inhibitor potency, dose response, biochemical, luminescence, cell-free homogeneous, retest (AID 434954)

Sequence of Glycogen synthase kinase-3 beta (P49841 whole entry): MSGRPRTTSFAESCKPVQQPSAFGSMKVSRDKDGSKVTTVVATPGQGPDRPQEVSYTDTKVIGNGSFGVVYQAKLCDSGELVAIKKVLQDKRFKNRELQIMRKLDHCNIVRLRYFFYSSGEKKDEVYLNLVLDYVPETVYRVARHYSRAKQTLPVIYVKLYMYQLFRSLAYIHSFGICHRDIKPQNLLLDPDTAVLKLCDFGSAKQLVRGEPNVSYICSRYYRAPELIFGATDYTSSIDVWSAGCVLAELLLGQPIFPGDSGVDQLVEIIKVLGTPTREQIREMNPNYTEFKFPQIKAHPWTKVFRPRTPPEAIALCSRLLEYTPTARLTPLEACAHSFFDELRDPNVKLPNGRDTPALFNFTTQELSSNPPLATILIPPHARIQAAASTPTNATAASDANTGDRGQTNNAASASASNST

Structure (SMILES)	EC50 [µM]
CC(=O)Nc1c(N)c2ccccc2oc1=O [N-(4-amino-2-oxo-1-benzopyran-3-yl)acetamide]	> 300
CCNc1ccc(S(=O)(=O)N(C)C)cc1NCC(=O)Nc1ccc(Br)cc1F [N-(4-bromanyl-2-fluoranyl-phenyl)-2-[[5-(dimethylsulfamoyl)-2-(ethylamino)phenyl]amino]ethanamide]	> 300
CC(C)N1CC(C(=O)Nc2ccc(Br)c(Cl)c2)CC1=O (centres undefined) [N-(4-bromo-3-chlorophenyl)-5-oxo-1-propan-2-yl-3-pyrrolidinecarboxamide]	> 300
Cc1cc(NC(=O)CCN2CCC(C)CC2)ccc1Br [N-(4-bromo-3-methylphenyl)-3-(4-methyl-1-piperidinyl)propanamide;hydrochloride]	> 300
O=C(CN1C(=O)CCC1=O)Nc1ccc(Br)cc1 [N-(4-bromophenyl)-2-(2,5-dioxo-1-pyrrolidinyl)acetamide]	> 300
COCc1c(C(=O)Nc2ccc(Cl)cc2F)oc2ccccc12 [N-(4-chloro-2-fluorophenyl)-3-(methoxymethyl)-2-benzofurancarboxamide]	> 300
O=C(CCSc1nnc(-c2ccncc2)o1)Nc1ccc(F)cc1 [N-(4-fluorophenyl)-3-[(5-pyridin-4-yl-1,3,4-oxadiazol-2-yl)thio]propanamide]	> 300
COc1ccc(Nc2nc(-c3ccncc3)nc3ccccc23)cc1 [N-(4-methoxyphenyl)-2-pyridin-4-ylquinazolin-4-amine]	> 300
COc1ccc(Nc2nc(N)nc(CSc3nncn3C)n2)cc1 [N-(4-methoxyphenyl)-6-{[(4-methyl-4H-1,2,4-triazol-3-yl)thio]methyl}-1,3,5-triazine-2,4-diamine]	41.3
Cc1ccnc(NC(=O)Cn2ccc([N+](=O)[O-])n2)c1 [N-(4-methylpyridin-2-yl)-2-(3-nitropyrazol-1-yl)ethanamide]	> 300
Cc1ccnc(NC(=O)Cc2ccc([N+](=O)[O-])cc2)c1 [N-(4-methylpyridin-2-yl)-2-(4-nitrophenyl)ethanamide]	21.4
Cc1ccnc(NC(=O)c2ccccc2[N+](=O)[O-])c1 [N-(4-methylpyridin-2-yl)-2-nitro-benzamide]	> 300
Cc1ccnc(NC(=O)c2ccc([N+](=O)[O-])s2)c1 [N-(4-methylpyridin-2-yl)-5-nitro-thiophene-2-carboxamide]	> 300
Cc1ccnc(NC(=O)CCC(=O)N(CC(=O)NCCc2ccccc2)Cc2cccs2)c1 [N-(4-methylpyridin-2-yl)-N'-[2-oxidanylidene-2-(2-phenylethylamino)ethyl]-N'-(thiophen-2-ylmethyl)butanediamide]	21.3
O=C(Nc1ncnc2sc3c(c12)CCCC3)c1ccncc1 [N-(5,6,7,8-tetrahydro-[1]benzothiolo[2,3-d]pyrimidin-4-yl)-4-pyridinecarboxamide]	42.4
CCc1n[nH]c(SCC(=O)Nc2ccc(Br)cn2)n1 [N-(5-bromanylpyridin-2-yl)-2-[(5-ethyl-1H-1,2,4-triazol-3-yl)sulfanyl]ethanamide]	17.5
Cn1c(SCC(=O)Nc2ccc(Br)cn2)nnc1C1CC1 [N-(5-bromopyridin-2-yl)-2-[(5-cyclopropyl-4-methyl-1,2,4-triazol-3-yl)sulfanyl]acetamide]	20.7
O=C(CCSCCc1ccccn1)Nc1ccc(Br)cn1 [N-(5-bromopyridin-2-yl)-3-(2-pyridin-2-ylethylsulfanyl)propanamide]	39.3
COCCn1c(SCC(=O)Nc2ccc(Cl)cn2)nnc1-c1ccncc1 [N-(5-chloranylpyridin-2-yl)-2-[[4-(2-methoxyethyl)-5-pyridin-4-yl-1,2,4-triazol-3-yl]sulfanyl]ethanamide]	49.2
Cn1c(SCC(=O)Nc2ccc(Cl)cn2)nnc1C1CC1 [N-(5-chloro-2-pyridinyl)-2-[(5-cyclopropyl-4-methyl-1,2,4-triazol-3-yl)thio]acetamide]	23.7
Cc1nnc(SCC(=O)Nc2ccc(Cl)cn2)[nH]c1=O [N-(5-chloro-2-pyridinyl)-2-[(6-methyl-5-oxo-2H-1,2,4-triazin-3-yl)thio]acetamide]	36.7
COCCn1c(SCC(=O)Nc2ccc(Cl)cn2)nc2ccccc21 [N-(5-chloropyridin-2-yl)-2-[1-(2-methoxyethyl)benzimidazol-2-yl]sulfanylacetamide]	3.82
Cc1csc(SCC(=O)Nc2ccc(Cl)cn2)n1 [N-(5-chloropyridin-2-yl)-2-[(4-methyl-1,3-thiazol-2-yl)sulfanyl]acetamide]	19.4
Cc1cc(NC(=O)COc2cccnc2[N+](=O)[O-])no1 [N-(5-methyl-1,2-oxazol-3-yl)-2-(2-nitropyridin-3-yl)oxyacetamide]	> 300
O=C(Nc1ncc([N+](=O)[O-])s1)c1ccco1 [N-(5-nitro-2-thiazolyl)-2-furancarboxamide]	> 300
O=C(Nc1nc2ccc(Cl)cc2s1)C1CC1 [N-(6-chloranyl-1,3-benzothiazol-2-yl)cyclopropanecarboxamide]	43.8
COc1ccc2nc(NC(=O)C3CCCO3)sc2c1 (centres undefined) [N-(6-methoxy-1,3-benzothiazol-2-yl)-2-oxolanecarboxamide]	> 300

Structure (SMILES)	EC50 [µM]
CCCn1nc(NC(=O)c2cccs2)c2cc3cc(OC)ccc3nc21 [N-(6-methoxy-1-propyl-3-pyrazolo[3,4-b]quinolinyl)-2-thiophenecarboxamide]	44.5
CCCn1nc(NC(=O)C(C)(C)C)c2cc3cc(OC)ccc3nc21 [N-(6-methoxy-1-propylpyrazolo[3,4-b]quinolin-3-yl)-2,2-dimethylpropanamide]	63.8
CCCn1nc(NC(=O)C(C)C)c2cc3cc(OC)ccc3nc21 [N-(6-methoxy-1-propylpyrazolo[3,4-b]quinolin-3-yl)-2-methylpropanamide]	> 300
Cc1cccc(NC(=O)C(C)n2cc([N+](=O)[O-])cn2)n1 (centres undefined) [N-(6-methylpyridin-2-yl)-2-(4-nitro-1H-pyrazol-1-yl)propanamide]	> 300
CC(=O)Nc1ncc2c(n1)CC(c1ccco1)CC2=O (centres undefined) [N-(7-Furan-2-yl-5-oxo-5,6,7,8-tetrahydro-quinazolin-2-yl)-acetamide]	> 300
CCCn1nc(NC(=O)C2CCCO2)c2cc3ccc(C)cc3nc21 (centres undefined) [N-(7-methyl-1-propyl-pyrazolo[3,4-b]quinolin-3-yl)oxolane-2-carboxamide]	> 300
CCCn1nc(NC(=O)c2cccs2)c2cc3ccc(C)cc3nc21 [N-(7-methyl-1-propylpyrazolo[3,4-b]quinolin-3-yl)thiophene-2-carboxamide]	> 300
CCCn1nc(NC(=O)C2CCCO2)c2cc3cccc(C)c3nc21 (centres undefined) [N-(8-methyl-1-propylpyrazolo[3,4-b]quinolin-3-yl)oxolane-2-carboxamide]	> 300
COc1ccc(CN(CC(=O)NCc2ccccc2)C(=O)CCC(=O)Nc2cc(C)ccn2)cc1 [N-(Benzylcarbamoyl-methyl)-N-(4-methoxy-benzyl)-N'-(4-methyl-pyridin-2-yl)-succinamide]	21.3
COc1ccccc1-c1ccc(=O)n(CC(=O)NCc2ccco2)n1 [N-(furan-2-ylmethyl)-2-[3-(2-methoxyphenyl)-6-oxidanylidene-pyridazin-1-yl]ethanamide]	> 300
O=C(NCc1ccco1)C(=O)c1cn(CC(=O)N2CCCC2)c2ccccc12 [N-(furan-2-ylmethyl)-2-oxidanylidene-2-[1-(2-oxidanylidene-2-pyrrolidin-1-yl-ethyl)indol-3-yl]ethanamide]	> 300
O=C(NCc1ccccc1)c1ccc2nccnc2c1 [N-(phenylmethyl)-6-quinoxalinecarboxamide]	> 300
O=C(NC(=O)c1ccccc1)Nc1ccccn1 [N-(pyridin-2-ylcarbamoyl)benzamide]	51.2
c1ccc(CNc2ncnc3scc(-c4cccs4)c23)nc1 [N-(pyridin-2-ylmethyl)-5-thiophen-2-yl-thieno[2,3-d]pyrimidin-4-amine]	> 300
O=C(NN=Cc1ccc2nccnc2c1)c1ccncc1 [N-(quinoxalin-6-ylmethylideneamino)pyridine-4-carboxamide]	> 300
COc1cccc(C(=O)Nc2nc3ccccc3s2)c1 [N-Benzothiazol-2-yl-3-methoxy-benzamide]	> 300
Nc1nc(NCc2ccccc2)nc(Nc2cccc(F)c2)c1[N+](=O)[O-] [N-Benzyl-N'-(3-fluoro-phenyl)-5-nitro-pyrimidine-2,4,6-triamine]	108
COc1ccc(OCCCC(=O)NCc2ccco2)cc1 [N-Furan-2-ylmethyl-4-(4-methoxy-phenoxy)-butyramide]	> 300
Nc1nc(NCc2ccco2)nc(Nc2ccccc2)c1[N+](=O)[O-] [N-Furan-2-ylmethyl-5-nitro-N'-phenyl-pyrimidine-2,4,6-triamine]	> 300
O=C(Nc1ccccc1)C(=O)Nc1ccccn1 [N-Phenyl-N'-pyridin-2-yl-oxalamide]	> 300
O=C(Nc1cccc2c1C(=O)NC2=O)c1cccnc1Cl [N-[1,3-bis(oxidanylidene)isoindol-4-yl]-2-chloranyl-pyridine-3-carboxamide]	> 300
O=C(Nc1cccc2c1C(=O)NC2=O)c1ccc(-n2c(O)ccc2O)cc1 [N-[1,3-bis(oxidanylidene)isoindol-4-yl]-4-[2,5-bis(oxidanylidene)pyrrolidin-1-yl]benzamide]	77.1
Cc1ccc(SCC(=O)Nc2ccc3c(c2)C(=O)NC3=O)cc1 [N-[1,3-bis(oxidanylidene)isoindol-5-yl]-2-(4-methylphenyl)sulfanyl-ethanamide]	> 300
CC(C)Cn1nc(NC(=O)c2cccs2)c2cc3ccccc3nc21 [N-[1-(2-methylpropyl)-3-pyrazolo[3,4-b]quinolinyl]-2-thiophenecarboxamide]	21.5
CC(N=Nc1nccnc1Cl)c1ccc(Br)cc1 (centres undefined) [N-[1-(4-bromophenyl)ethylideneamino]-3-chloranyl-pyrazin-2-amine]	> 300
COc1ccc(S(=O)(=O)NCC(c2ccc3c(c2)OCO3)N2CCOCC2)cc1 (centres undefined) [N-[2-(1,3-benzodioxol-5-yl)-2-morpholin-4-ylethyl]-4-methoxybenzenesulfonamide]	> 300
O=C(NCC(c1ccco1)N1CCc2ccccc21)c1c(F)cccc1F (centres undefined) [N-[2-(2,3-dihydroindol-1-yl)-2-(furan-2-yl)ethyl]-2,6-bis(fluoranyl)benzamide]	> 300
